Source: patent publication US20120121591A1 (priority 2009, published 2012)
Read-outs that look alike come from different tables or passages of the source.

Tests used:
Format in all cases: cell-based
[1] = tested on: IFN-g secretion from T cells in human whole blood
[2] = molecular target: hKv1.3 (Homo sapiens, UniProt P22001); assay: cell-based; conditions: Kv1.3 (IWQ) IC50 (nM, Avg)
[3] = tested on: IL-2 secretion from T cells in human whole blood; conditions: read-out: WB (IL-2) IC50 (nM, Avg)
[4] = read-out: WB (IFNg) IC50 (nM, Avg)
[5] = read-out: WB (IFNg) IC5- (nM, Avg)

Sequence of hKv1.3 (P22001 whole entry): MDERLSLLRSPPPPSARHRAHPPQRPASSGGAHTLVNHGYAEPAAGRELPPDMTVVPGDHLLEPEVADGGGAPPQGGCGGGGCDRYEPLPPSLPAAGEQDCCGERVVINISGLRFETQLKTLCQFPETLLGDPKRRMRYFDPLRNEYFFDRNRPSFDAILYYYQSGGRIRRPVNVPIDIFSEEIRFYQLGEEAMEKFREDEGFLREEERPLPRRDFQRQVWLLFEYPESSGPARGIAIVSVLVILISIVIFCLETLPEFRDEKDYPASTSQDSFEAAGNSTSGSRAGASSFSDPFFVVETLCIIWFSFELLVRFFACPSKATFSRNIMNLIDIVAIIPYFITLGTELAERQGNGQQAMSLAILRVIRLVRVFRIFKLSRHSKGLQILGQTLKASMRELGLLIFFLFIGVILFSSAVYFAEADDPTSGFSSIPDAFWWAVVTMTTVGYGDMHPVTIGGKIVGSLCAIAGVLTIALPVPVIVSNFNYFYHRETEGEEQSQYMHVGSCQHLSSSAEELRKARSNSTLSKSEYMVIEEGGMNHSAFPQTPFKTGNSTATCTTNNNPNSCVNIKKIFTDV

Row | Structure (SMILES) | IC50 [1, 4] [nM] | IC50 [2] [nM] | IC50 [3] [nM] | IC50 [1, 5] [nM]
1 | CC[C@H](C)[C@@H]1NC(=O)[C@@H](NC(=O)[C@H](CO)NC(=O)[C@@H](N)CCCNC(=N)N)CSSC[C@@H](C(=O)O)NC(=O)[C@H]([C@@H](C)O)NC(=O)CNC(=O)[C@@H]2CSSC[C@@H]3NC(=O)[C@H](CCC(N)=O)NC(=O)[C@H](Cc4ccccc4)NC(=O)[C@H](C)NC(=O)[C@H]([C@@H](C)O)NC(=O)[C@H](CSSC[C@H](NC(=O)[C@H](Cc4ccccc4)NC(=O)[C@H](CO)NC(=O)[C@H](CC(C)C)NC(=O)[C@H](CCCNC(=N)N)NC(=O)[C@H](Cc4ccc(O)cc4)NC(=O)[C@H](CCCCN)NC(=O)[C@H](CCSC)NC(=O)[C@H](CO)NC(=O)[C@H](Cc4c[nH]cn4)NC(=O)[C@H](CCCCN)NC3=O)C(=O)N[C@@H](CCCNC(=N)N)C(=O)N[C@@H](CCCCN)C(=O)N[C@@H]([C@@H](C)O)C(=O)N2)NC(=O)[C@H](Cc2cccc3ccccc23)NC(=O)[C@H](CO)NC(=O)[C@H](CCCCN)NC(=O)[C@@H]2CCCN2C(=O)[C@H]([C@@H](C)CC)NC(=O)[C@H]([C@@H](C)O)NC(=O)[C@H](CC(=O)O)NC1=O [[1-Nal11]ShK] | 1.65 | 0.922 | 1.14 | –
2 | CC[C@H](C)[C@@H]1NC(=O)[C@@H](NC(=O)[C@H](CO)NC(=O)[C@@H](N)CCCNC(=N)N)CSSC[C@@H](C(=O)O)NC(=O)[C@H]([C@@H](C)O)NC(=O)CNC(=O)[C@@H]2CSSC[C@@H]3NC(=O)[C@H](CCC(N)=O)NC(=O)[C@H](CCC(=O)O)NC(=O)[C@H](C)NC(=O)[C@H]([C@@H](C)O)NC(=O)[C@H](CSSC[C@H](NC(=O)[C@H](Cc4ccccc4)NC(=O)[C@H](CO)NC(=O)[C@H](CC(C)C)NC(=O)[C@H](CCCNC(=N)N)NC(=O)[C@H](Cc4ccc(O)cc4)NC(=O)[C@H](CCCCN)NC(=O)[C@H](CCSC)NC(=O)[C@H](CO)NC(=O)[C@H](Cc4c[nH]cn4)NC(=O)[C@H](CCCCN)NC3=O)C(=O)N[C@@H](CCCNC(=N)N)C(=O)N[C@@H](CCCCN)C(=O)N[C@@H]([C@@H](C)O)C(=O)N2)NC(=O)[C@H](CCCNC(=N)N)NC(=O)[C@H](CO)NC(=O)[C@H](CCCCN)NC(=O)[C@@H]2CCCN2C(=O)[C@H]([C@@H](C)CC)NC(=O)[C@H]([C@@H](C)O)NC(=O)[C@H](CC(=O)O)NC1=O [[Glu15]ShK] | – | 0.266 | 0.312 | 0.575
3 | CC[C@H](C)[C@@H]1NC(=O)[C@@H](NC(=O)[C@H](CO)NC(=O)[C@@H](N)CCCNC(=N)N)CSSC[C@@H](C(=O)O)NC(=O)[C@H]([C@@H](C)O)NC(=O)CNC(=O)[C@@H]2CSSC[C@@H]3NC(=O)[C@H](CCC(N)=O)NC(=O)[C@H](Cc4ccccc4)NC(=O)[C@H](C)NC(=O)[C@H]([C@@H](C)O)NC(=O)[C@H](CSSC[C@H](NC(=O)[C@H](Cc4ccccc4)NC(=O)[C@H](CO)NC(=O)[C@H](CCC(=O)O)NC(=O)[C@H](CCCNC(=N)N)NC(=O)[C@H](Cc4ccc(O)cc4)NC(=O)[C@H](CCCCN)NC(=O)[C@H](CCSC)NC(=O)[C@H](CO)NC(=O)[C@H](Cc4c[nH]cn4)NC(=O)[C@H](CCCCN)NC3=O)C(=O)N[C@@H](CCCNC(=N)N)C(=O)N[C@@H](CCCCN)C(=O)N[C@@H]([C@@H](C)O)C(=O)N2)NC(=O)[C@H](CCCNC(=N)N)NC(=O)[C@H](CO)NC(=O)[C@H](CCCCN)NC(=O)[C@@H]2CCCN2C(=O)[C@H]([C@@H](C)CC)NC(=O)[C@H]([C@@H](C)O)NC(=O)[C@H](CC(=O)O)NC1=O [[Glu25]ShK] | – | 0.24 | 0.494 | 0.678
4 | CC[C@H](C)[C@@H]1NC(=O)[C@@H](NC(=O)[C@H](CCC(=O)O)NC(=O)[C@@H](N)CCCNC(=N)N)CSSC[C@@H](C(=O)O)NC(=O)[C@H]([C@@H](C)O)NC(=O)CNC(=O)[C@@H]2CSSC[C@@H]3NC(=O)[C@H](CCC(N)=O)NC(=O)[C@H](Cc4ccccc4)NC(=O)[C@H](C)NC(=O)[C@H]([C@@H](C)O)NC(=O)[C@H](CSSC[C@H](NC(=O)[C@H](Cc4ccccc4)NC(=O)[C@H](CO)NC(=O)[C@H](CC(C)C)NC(=O)[C@H](CCCNC(=N)N)NC(=O)[C@H](Cc4ccc(O)cc4)NC(=O)[C@H](CCCCN)NC(=O)[C@H](CCSC)NC(=O)[C@H](CO)NC(=O)[C@H](Cc4c[nH]cn4)NC(=O)[C@H](CCCCN)NC3=O)C(=O)N[C@@H](CCCNC(=N)N)C(=O)N[C@@H](CCCCN)C(=O)N[C@@H]([C@@H](C)O)C(=O)N2)NC(=O)[C@H](CCCNC(=N)N)NC(=O)[C@H](CO)NC(=O)[C@H](CCCCN)NC(=O)[C@@H]2CCCN2C(=O)[C@H]([C@@H](C)CC)NC(=O)[C@H]([C@@H](C)O)NC(=O)[C@H](CC(=O)O)NC1=O [[Glu2]ShK] | – | 0.111 | 0.029 | 0.039
5 | CC[C@H](C)[C@@H]1NC(=O)[C@H]([C@@H](C)O)NC(=O)[C@H](CC(=O)O)NC(=O)[C@H](CCC(=O)O)NC(=O)[C@@H](NC(=O)[C@H](CO)NC(=O)[C@@H](N)CCCNC(=N)N)CSSC[C@@H](C(=O)N[C@@H](C)C(=O)O)NC(=O)[C@H]([C@@H](C)O)NC(=O)CNC(=O)[C@@H]2CSSC[C@@H]3NC(=O)[C@H](CCCCN)NC(=O)[C@H](Cc4ccccc4)NC(=O)[C@H](C)NC(=O)[C@H]([C@@H](C)O)NC(=O)[C@H](CSSC[C@H](NC(=O)[C@H](Cc4ccccc4)NC(=O)[C@H](CO)NC(=O)[C@H](CC(C)C)NC(=O)[C@H](CCCNC(=N)N)NC(=O)[C@H](Cc4ccc(O)cc4)NC(=O)[C@H](CCCCN)NC(=O)[C@H](CCC(N)=O)NC(=O)[C@H](CO)NC(=O)[C@H](Cc4c[nH]cn4)NC(=O)[C@H](CCCCN)NC3=O)C(=O)N[C@@H](CCCNC(=N)N)C(=O)N[C@@H](CCCCN)C(=O)N[C@@H]([C@@H](C)O)C(=O)N2)NC(=O)[C@H](CCCNC(=N)N)NC(=O)[C@H](CO)NC(=O)[C@H](CCCCN)NC(=O)[C@@H]2CCCN2C1=O [[Glu4,Lys16,Gln21]ShK-Ala] | 0.265 | 26.4 | 0.137 | –
6 | CC[C@H](C)[C@@H]1NC(=O)[C@@H](NC(=O)[C@H](CO)NC(=O)[C@@H](N)CCCNC(=N)N)CSSC[C@@H](C(N)=O)NC(=O)[C@H]([C@@H](C)O)NC(=O)CNC(=O)[C@@H]2CSSC[C@@H]3NC(=O)[C@H](CCCCN)NC(=O)[C@H](Cc4ccccc4)NC(=O)[C@H](C)NC(=O)[C@H]([C@@H](C)O)NC(=O)[C@H](CSSC[C@H](NC(=O)[C@H](Cc4ccccc4)NC(=O)[C@H](CO)NC(=O)[C@H](CC(C)C)NC(=O)[C@H](CCCNC(=N)N)NC(=O)[C@H](Cc4ccc(O)cc4)NC(=O)[C@H](CCCCN)NC(=O)[C@H](CC(N)=O)NC(=O)[C@H](CO)NC(=O)[C@H](Cc4c[nH]cn4)NC(=O)[C@H](CCCCN)NC3=O)C(=O)N[C@@H](CCCNC(=N)N)C(=O)N[C@@H](CCCCN)C(=O)N[C@@H]([C@@H](C)O)C(=O)N2)NC(=O)[C@H](CCCNC(=N)N)NC(=O)[C@H](CO)NC(=O)[C@H](CCCCN)NC(=O)[C@@H]2CCCN2C(=O)[C@H]([C@@H](C)CC)NC(=O)[C@H]([C@@H](C)O)NC(=O)[C@H](CC(=O)O)NC1=O [[Lys16, Asn21]ShK-amide] | – | 0.167 | 3.24 | –
7 | CC[C@H](C)[C@@H]1NC(=O)[C@@H](NC(=O)[C@H](CO)NC(=O)[C@@H](N)CCCNC(=N)N)CSSC[C@@H](C(=O)O)NC(=O)[C@H](CCC(=O)O)NC(=O)CNC(=O)[C@@H]2CSSC[C@@H]3NC(=O)[C@H](CCC(N)=O)NC(=O)[C@H](Cc4ccccc4)NC(=O)[C@H](C)NC(=O)[C@H]([C@@H](C)O)NC(=O)[C@H](CSSC[C@H](NC(=O)[C@H](Cc4ccccc4)NC(=O)[C@H](CO)NC(=O)[C@H](CC(C)C)NC(=O)[C@H](CCCNC(=N)N)NC(=O)[C@H](Cc4ccc(O)cc4)NC(=O)[C@H](CCCCN)NC(=O)[C@H](CCSC)NC(=O)[C@H](CO)NC(=O)[C@H](Cc4c[nH]cn4)NC(=O)[C@H](CCCCN)NC3=O)C(=O)N[C@@H](CCCNC(=N)N)C(=O)N[C@@H](CCCCN)C(=O)N[C@@H]([C@@H](C)O)C(=O)N2)NC(=O)[C@H](CCCNC(=N)N)NC(=O)[C@H](CO)NC(=O)[C@H](CCCCN)NC(=O)[C@@H]2CCCN2C(=O)[C@H]([C@@H](C)CC)NC(=O)[C@H]([C@@H](C)O)NC(=O)[C@H](CC(=O)O)NC1=O [[Glu34]ShK] | – | 0.067 | – | 0.123
8 | CC[C@H](C)[C@@H]1NC(=O)[C@@H](NC(=O)[C@H](CO)NC(=O)[C@@H](N)CCCNC(=N)N)CSSC[C@@H](C(=O)O)NC(=O)[C@H]([C@@H](C)O)NC(=O)CNC(=O)[C@@H]2CSSC[C@@H]3NC(=O)[C@H](CCC(N)=O)NC(=O)[C@H](Cc4ccccc4)NC(=O)[C@H](C)NC(=O)[C@H]([C@@H](C)O)NC(=O)[C@H](CSSC[C@H](NC(=O)[C@H](Cc4ccccc4)NC(=O)[C@H](CO)NC(=O)[C@H](CC(C)C)NC(=O)[C@H](CCCNC(=N)N)NC(=O)[C@H](Cc4ccc(O)cc4)NC(=O)[C@H](CCCCN)NC(=O)[C@H](CCSC)NC(=O)[C@H](CO)NC(=O)[C@H](Cc4c[nH]cn4)NC(=O)[C@H](CCCCN)NC3=O)C(=O)N[C@@H](CCCNC(=N)N)C(=O)N[C@@H](CCCCN)C(=O)N[C@@H]([C@@H](C)O)C(=O)N2)NC(=O)[C@H](CCCNC(=N)N)NC(=O)[C@H](CO)NC(=O)[C@H](CCCCN)NC(=O)[C@H](CCC(=O)O)NC(=O)[C@H]([C@@H](C)CC)NC(=O)[C@H]([C@@H](C)O)NC(=O)[C@H](CC(=O)O)NC1=O [[Glu8]ShK] | – | 0.097 | – | 0.238
